“Also recorded” adds a separate entry of the source.
Columns and labels:
[1] = test system: PR target genes in T47D cells expressing WT PR, SUMO-deficient PR (KR) or empty vector; assay: Gene expression profiling (Illumina HT-12v4) of T47D cell lines treated with progesterone or antiprogestins; assay type: cell-based, human; details: for expression of progesterone-regulated PR target genes: T47D cells expressing SUMO-deficient PR (KR), antiprogestin 10^−7 M alone or plus progesterone 10^−8 M
Experimental: T47D cells stably expressing pIRES-neo3 empty vector, WT or KR PR were serum starved in modified IMEM (Gibco, catalog #A10488) for 1 day, treated with R5020 (10^−8 M) or vehicle control for 6 h before RNA extraction using a RNeasy kit (QIAgen, catalog #74104). Six h of progestin treatment allowed for substantial PR-dependent gene expression as compared to prior studies (Jacobsen et al., 2005; Richer et al., 2002). DNase I treated (QIAgen, catalog #79254) RNA samples from duplicate experiments were prepared for expression analysis using the Illumina HT-12v4 bead chip platform according to manufacture's protocols. Data were analyzed within R software using the Bioconductor (Gentleman et al., 2004) package called lumi where raw intensities were log2 transformed and quantile normalized. Differentially expressed genes were analyzed using the limma package, where empirical Bayes was used to better estimate the variance of the genes. Gene expression data presented contain log2 normalized intensities and biological comparisons presented (e.g. R5020/vehicle) contain log2 fold change with the Benjamini and Hochberg (BH) adjusted P value (Benjamini and Hochberg, 1995). To generate the heat map in FIG. 1C, unsupervised hierarchical clustering of genes was carried out using heatmap. 2 function in the R package gplots. Clustering was performed using Euclidean distance and complete linkage. Rows were scaled to have mean zero and standard deviation equal to one.
Gene expression profiles in T47D cell lines treated with antiprogestins were obtained using identical methods as described above, except for these notable differences. After serum starvation, cells stably expressing empty vector, WT, or KR PR were treated for 6 hours under one of eight possible conditions: (1) ethanol (vehicle control), (2) progesterone (10^−8 M), (3) RU486 (10^−7 M), (4) aglepristone (10^−7 M), (5) onapristone (10^−7 M), (6) RU486 (10^−7 M) plus progesterone (10^−8 M), (7) aglepristone (10^−7 M) plus progesterone (10^−8 M), or (8) onapristone (10^−7 M) plus progesterone (10^−8 M). Gene expression levels were measured, normalized, analyzed, and heat maps were generated using the methods described above.
Raw microarray data from two independent microarray experiments (both performed using the Illumina HT-12v4 platform described above) were combined and normalized together within R software using the Bioconductor (Gentleman et al., 2004) package called lumi where raw intensities were log 2 transformed and quantile normalized.
Sample Sizes & Composition: For the first analysis, two KR cell replicates were used that had been stimulated with R5020 a synthetic progestin in the first experiment and three KR cell replicates that had been stimulated with progesterone in the second experiment. The same was accomplished regarding the corresponding WT cell replicates. Pertaining to the first analysis, therefore, a sample size of n=5 was used for each of the two groups (KR & WT). Regarding the second analysis, we used three KR cell replicates that had been co-treated with progesterone plus onapristone in the second experiment; and we used three WT cell replicates that had been co-treated with progesterone plus onapristone also in the second experiment (n=3 for each of the two groups). Regarding the third analysis, we used three KR cell replicates that had been co-treated with progesterone plus RU486 in the second experiment; and we used three WT cell replicates that had been co-treated with progesterone plus RU486 also in the second experiment (n=3 for each of the two groups). Regarding the fourth analysis, three KR cell replicates was used that had been co-treated with progesterone plus onapristone; and three WT cell replicates were used that had been treated with vehicle control (ethanol) (n=3 for each of the two groups). […]

[2] = test system: MAP1A and RGS2 mRNA in T47D cells stably expressing WT PR; assay: RT-qPCR with epidermal growth factor (EGF) treatment in T47D cells expressing WT PR; assay type: cell-based, human
Experimental: For RT-qPCR assays involving epidermal growth factor (EGF) treatment, cells were plated at 5×10^5 cells/well in 6-well dishes and serum starved for 2 days in modified IMEM. Cells were pre-treated with 100 ng/ml EGF (Sigma, catalog #E9644) before treatment with R5020 (10^−8 M).

C/C=C\[C@]1(O)CC[C@H]2[C@@H]3CCC4=CC(=O)CCC4=C3[C@@H](c3ccc(N(C)C)cc3)C[C@@]21C [aglepristone, (8S,11R,13S,14S,17R)-11-(4-dimethylaminophenyl)-17-hydroxy-13-methyl-17-[(Z)-prop-1-enyl]-1,2,6,7,8,11,12,14,15,16-decahydrocyclopenta[a]phenanthren-3-one]
expression of progesterone-regulated PR target genes ([1]; 6 h): caused many PR target genes to become upregulated
agonistic activity ([1]; cells expressing hyperactive / SUMO-deficient PR (KR)): substantial agonistic activity; also recorded: agonistic properties

CN(C)c1ccc([C@H]2C[C@]3(C)[C@@H](CC[C@]3(O)CCCO)[C@@H]3CCC4=CC(=O)CCC4=C32)cc1 [onapristone, (8S,11R,13R,14S,17S)-11-[4-(dimethylamino)phenyl]-17-hydroxy-17-(3-hydroxypropyl)-13-methyl-1,2,6,7,8,11,12,14,15,16-decahydrocyclopenta[a]phenanthren-3-one]
number of the 29 KR>WT genes stimulated by onapristone treatment alone ([1]; KR cells, onapristone alone): none
number of the 29 KR>WT genes stimulated by onapristone plus P4 treatment ([1]; KR cells, onapristone plus P4): 13 genes
number of genes significantly differentially expressed, KR cells (onapristone plus progesterone) vs WT cells (ethanol) ([1]; KR treated with onapristone plus progesterone, WT treated with vehicle control): 5 genes
expression of progesterone-regulated PR target genes ([1]; 6 h): did not cause these PR target genes to be upregulated; also recorded: do not stimulate gene expression
number of genes significantly differentially expressed, WT cells (progesterone plus onapristone) vs WT cells (ethanol) ([1]; WT cells): only one gene
number of genes significantly differentially expressed between KR and WT cells ([1]; both cell lines co-treated with progesterone plus the antiprogestin): 8 genes
significant differential expression of the 15 biomarker genes between KR and WT cells ([1]; both cell lines co-treated with progesterone plus the antiprogestin, with the exception of one gene (CDH10)): completely annulled
antagonist activity ([1]; cells expressing WT or KR PR): effective antagonist
reversal of the effects of progesterone exposure ([1]; cells expressing activated PR (KR), onapristone in the presence of progesterone): can effectively reverse
inhibition of expression of PR target genes ([1]; cells that express hyperactive PR (phosphorylated and deSUMOylated; KR)): can successfully inhibit
reversal of transcriptional differences induced by progesterone ([1]; cells with a WT PR receptor, progesterone plus onapristone): almost completely reverse

CC(=O)[C@H]1CC[C@H]2[C@@H]3CCC4=CC(=O)CC[C@]4(C)[C@H]3CC[C@]12C [progesterone]
gene expression after progesterone (P4) treatment ([1]; both WT and KR cells, progesterone 10^−8 M, 6 h): significantly upregulated

EGF: epidermal growth factor (Sigma) (NSDSECPLSHDGYCLHDGVCMYIEALDKYACNCVVGYIGERCQYRDLKWWELR; Epidermal growth factor; UniProt P01133 971-1023, looked up)
MAP1A and RGS2 mRNA expression ([2]; EGF alone (100 ng/ml) over a 2-day time course): insensitive
progestin stimulated mRNA expression of MAP1A and RGS2 ([2]; EGF pre-treatment (100 ng/ml) followed by R5020 10^−8 M): significantly augmented

Reference: patent US10501800B2, “Breast cancer prognosis” (Regents of the University of Minnesota, priority 2012, dated 2019)
